Read-outs that look alike come from different tables or passages of the source.
Tests used:
CXCR2 = target: T1, CXCR2 (Homo sapiens, UniProt P25025); test: CXCR2 radioligand binding assay with 125I labeled IL-8 (Panlabs); conditions: for inhibition at 20 µM: letter following "II", read-out: Biological Activity II (CXCR2): extent of inhibition; for IC50: read-out: IC50 (after II, CXCR2)
T1 construct: host or cells: CHO cells
T1 sequence (P25025 1-360): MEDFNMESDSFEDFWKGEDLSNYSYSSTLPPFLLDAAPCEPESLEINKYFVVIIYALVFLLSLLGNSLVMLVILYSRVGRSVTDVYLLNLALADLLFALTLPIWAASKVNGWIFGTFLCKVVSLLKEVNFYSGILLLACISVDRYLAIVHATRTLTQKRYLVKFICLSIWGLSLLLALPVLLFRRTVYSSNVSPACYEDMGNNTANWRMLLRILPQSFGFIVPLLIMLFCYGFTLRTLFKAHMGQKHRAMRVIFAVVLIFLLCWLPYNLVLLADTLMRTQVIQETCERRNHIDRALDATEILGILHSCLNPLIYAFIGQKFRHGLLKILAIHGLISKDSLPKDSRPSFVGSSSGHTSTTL
From the text: This assay is a radioligand binding assay in human recombinant CHO cells with ^125I labeled IL-8 as ligand as described in The Journal of Biological Chemistry (Ahuja, S. K.; Murphy, P. M;. J. Biol. Chem. 1996, 271, 20545).

A549 cells = test: Inhibition of TNF-α-induced apoptosis in A549 cells (crystal violet); assay type: cell-based; conditions: letter following "III"; inhibition at 20 μM
Experimental: The protocol used for determining inhibition of apoptosis in A549 cells was adopted from a system previously described (K. Last-Barney et al, J. of Immunology, 1988, 141, 527-530). Briefly, 10^5 cells in 200 μL 10% FBS/RPMI antibiotic containing culture medium were plated into 96 well round bottom culture plates and allowed to adhere for 6 hours at 37° C. in a 5% CO2 atmosphere. The media was removed and 100 μL of RPMI+1 μg/mL actinomycin-D was added to each well, followed by 100 μL of 20 μM solution of compound in 1% DMSO. This was incubated for 1 hour. […] The media was aspirated from the plates and 100 μL of 0.5% crystal violet in 20% methanol was added. After 10 minutes the plates were rinsed with water to remove excess stain, air dried, and read on a Spectramax spectrophotometer at a wavelength of 590 nm.

Row | Structure (SMILES) | inhibition at 20 µM (CXCR2) [%] | IC50 (CXCR2; unit μm [sic]) [µM] | IC50 (CXCR2) [µM] | Biological Activity III (apoptosis): extent of inhibition (A549 cells)
1 | COc1cc(OC)c(CNC(=O)Cc2ccc(CN3C(=O)[C@@H]4C[C@H](NC(=O)OCC5c6ccccc6-c6ccccc65)CN4C(=O)[C@@H]3CC(=O)O)cc2)c(OC)c1 | > 50 | 15 | – | –
2 | COC(=O)C[C@H]1C(=O)N2C[C@@H](NC(=O)c3cnc4ccccc4c3)C[C@H]2C(=O)N1Cc1ccc(CC(=O)NCc2c(OC)cc(OC)cc2OC)cc1 | > 50 | – | 25 | A (A refers to >50% inhibition at 20 μM)
